The source of these data is US4943581A, “Isoquinolinesulfonamides” (Hokuriku Pharmaceutical Co., Ltd., priority 1988, dated 1990).

Counter-ions that a name gives are not always drawn.

The subject of experiment [1] is smooth muscle of the blood vessel (superior mesenteric artery). Kind of experiment: Relaxation effect on smooth muscle of blood vessel (spiral specimen of superior mesenteric artery contracted with 20 mM KCl). Conditions: Oryctolagus cuniculus; concentration giving 50% relaxation; contraction induced by 20 mM KCl taken as 100%; 37°±0.5° C.; rabbit superior mesenteric artery; read-out: ED50 (the source's name). As for the experimental part:
The extracted blood vessels were cut in the usual way into the form of spirals, and a specimen of 1.5-2.5 mm in width and 20-30 mm in length was formed. The spiral specimen was suspended in 20 ml organ bath comprising Krebs-Henseleit's solution, after which a tension of 2.0-0.5 g was loaded. The nutrient solution was warmed at 37°±0.5° C. and ventilated by mixed gas of 95% oxygen and 5% carbon dioxide. The lower end was fixed, whereas the upper end was attached to a force-displacement transducer (SB-1T) manufactured by Nihon Koden Company. The change of tension was recorded isometrically. The specimen was suspended for at least 60 minutes before the test was begun, and the nutrient solution was exchanged every 15 minutes to conduct the experiment in the meantime.
The relaxation effect upon the smooth muscle of the blood vessel was tested. Previously, the spiral specimen had been contracted with 20 mM of KCl and maintained at a certain tension; thereafter the test agent was added cumulatively. Contraction induced by 20 mM KCl was taken as 100% and the relaxation effect of the test agent was represented by ED50 which was the concentration of the agent at which only 50% of the muscles remained shrunken.

In experiment [2] the target is T1, myosin light-chain kinase (Gallus gallus, UniProt P11799).
T1 construct: myosin light chain kinase (prepared from the smooth muscles of chicken gizzard); from tissue; host or cells: smooth muscle of chicken gizzard (kinase); cattle brain (calmodulin)
Kind of experiment: Inhibition of myosin light-chain kinase (32P incorporation from [γ-32P] ATP into myosin light chain). The note with it: enzymatic activity depression of 50%; chicken gizzard; 200 μM CaCl2, 80 ng calmodulin, pH 7.0, 30 °C. Format: biochemical. The procedure: A myosin light chain of the smooth muscles of chicken gizzard was used as a substrate and the amount of radioactive phosphoric acid incorporated from [γ-32P] ATP into the substrate-protein was measured for a determination of the activity of the enzyme. The reaction solution, in an amount of 200 μl as a whole, was constituted from 25 mM of Tris-HCl(pH 7.0), 10 mM MgCl2, 40 μg of myosin light chain (obtained by preparing myosin from the smooth muscle of chicken gizzard followed by guanidine denaturization), 200 μM of CaCl2, 80 ng of calmodulin (prepared from cattle brain), myosin light chain kinase (prepared from the smooth muscles of chicken gizzard), and agents of various concentrations. The reaction was started by the addition of 20 μl of 100 μM [γ-32P] ATP at 30 ° C., and stopped by the addition of 0.5 ml of 20% TCA. After the reaction was stopped, 3 ml of 5% TCA and 0.1 ml of 1 mg/ml albumin solution were added into the reaction mixture, the resulting solution was centrifuged, and the obtained acid-insoluble protein was fixed on the bottom of a test tube. Further, the supernatant was removed, 3 ml of 5% TCA was added into the residue, and the solution was centrifuged. […] The precipitated protein was dissolved with 2 ml of 1 N NaOH, transferred to a vial containing about 10 ml of water, and measured for Cherenkov effect by a liquid scintillation counter. […]

T1 sequence (P11799 935-1906): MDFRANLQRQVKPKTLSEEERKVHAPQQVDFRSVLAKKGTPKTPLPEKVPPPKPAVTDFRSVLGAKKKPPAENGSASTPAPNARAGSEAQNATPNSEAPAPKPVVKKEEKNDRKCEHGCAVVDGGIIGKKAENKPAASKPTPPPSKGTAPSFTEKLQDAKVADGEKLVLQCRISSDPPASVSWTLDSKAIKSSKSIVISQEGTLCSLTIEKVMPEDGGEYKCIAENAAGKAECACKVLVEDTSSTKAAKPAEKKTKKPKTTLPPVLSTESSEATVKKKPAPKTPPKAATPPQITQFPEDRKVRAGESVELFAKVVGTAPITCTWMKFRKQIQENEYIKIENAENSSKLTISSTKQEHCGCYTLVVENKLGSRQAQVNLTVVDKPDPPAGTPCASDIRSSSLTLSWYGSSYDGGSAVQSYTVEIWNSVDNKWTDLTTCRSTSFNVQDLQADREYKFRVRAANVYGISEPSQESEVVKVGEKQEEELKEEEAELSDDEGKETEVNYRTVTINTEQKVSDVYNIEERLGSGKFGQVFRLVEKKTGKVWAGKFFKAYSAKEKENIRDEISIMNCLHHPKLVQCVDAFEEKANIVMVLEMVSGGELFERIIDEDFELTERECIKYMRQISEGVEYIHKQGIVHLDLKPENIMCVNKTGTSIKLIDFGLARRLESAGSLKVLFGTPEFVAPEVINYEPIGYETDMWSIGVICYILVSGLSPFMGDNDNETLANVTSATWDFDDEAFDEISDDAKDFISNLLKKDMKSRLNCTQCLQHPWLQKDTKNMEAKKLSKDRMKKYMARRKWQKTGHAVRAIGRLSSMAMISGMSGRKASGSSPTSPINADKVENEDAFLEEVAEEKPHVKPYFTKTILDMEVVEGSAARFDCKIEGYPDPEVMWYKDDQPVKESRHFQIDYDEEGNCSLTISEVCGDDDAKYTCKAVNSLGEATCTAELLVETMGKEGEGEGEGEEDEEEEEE

Regarding `NCCNS(=O)(=O)c1ccc(Cl)c2ccncc12` [Example 1, N-(2-Aminoethyl)-5-chloroisoquinoline-8-sulfonamide 2 hydrochloride], the EC50 in experiment [1] was determined as 32 µM. In addition, in experiment [2], inhibition was half-maximal at 31 µM (IC50).

In general, IC50 refers to the point on the concentration scale where inhibition reaches its midpoint.
